Data taken from US10596218B2, “Coix seed oil containing 16 glycerides, and pharmaceutical preparation and use thereof” (ZHEJIANG KANGLAITE GROUP CO., LTD., priority 2014, dated 2020).
In brackets after ≈: the same amount, converted by molar mass.

How the values were obtained:
Format in all cases: cell-based
[1] = system: Bcap-37 (human breast cancer cells); assay: MTT inhibition of cell growth in vitro, Bcap-37; details: Bcap37, Bcap-37, MTT, 48 h, read-out: IC50 values of samples in vitro
Source text: (§1) (1) Cell lines: PANC-1 (human pancreatic cancer cells), SKOV3 (human ovarian cancer cells), MCF-7 (human breast cancer cells), Bcap-37 (human breast cancer cells), SMMC-7721 (human hepatic cancer cells), HepG-2 (human hepatic cancer cells), A549 (human lung cancer cells) and H460 (human lung cancer cells), storaged and passaged maintainably in Research and Evaluation Center for Pharmacology, Shanghai Institute of Pharmaceutical Industry;
(§2) The inhibition effects of samples on the above-mentioned cell lines were detected by using MTT method. The specific procedures were as follows: […]
(§3) (4) Cells in a logarithmic growth stage were trypsinized and washed, then re-suspended in the medium containing 10% calf serum. The number of living cells was counted in Trypan blue dye exclusion method and cell suspensions were adjusted into a density of 2×10^5 cell/ml. […]
(§4) (7) 100 μl of crystal dissolving solution was added into each well and cells were incubated continuously in the incubator overnight, so as to dissolve the resulted formazan crystals sufficiently. Then, the absorbance value was measured at 570 nm for each well.
(§5) (8) Based on absorbance values, inhibition rates on the cell growth were calculated for sample groups of various concentrations. The calculation formula was as follows: (1−mean absorbance of experimental wells/mean absorbance of control wells)×100%

[2] = system: H460 (human lung cancer cells); assay: MTT inhibition of cell growth in vitro, H460; details: NCI-H460, 48 h, read-out: IC50 values of samples in vitro
Source text: as §1, §2, §3, §4, §5

[3] = system: PANC-1 (human pancreatic cancer cells); assay: MTT inhibition of cell growth in vitro, PANC-1; details: PANC-1, MTT, 48 h, read-out: IC50 values of samples in vitro
Source text: as §1, §2, §3, §4, §5

[4] = system: SMMC-7721 (human hepatic cancer cells); assay: MTT inhibition of cell growth in vitro, SMMC-7721; details: SMMC-7721, MTT, 48 h, read-out: IC50 values of samples in vitro
Source text: as §1, §2, §3, §4, §5

[5] = system: SKOV3 (human ovarian cancer cells); assay: MTT inhibition of cell growth in vitro, SKOV3; details: SK-OV-3, 48 h, read-out: IC50 values of samples in vitro
Source text: as §1, §2, §3, §4, §5

IC50 [1]: 0.28 µg/mL (≈ 0.328 µM) | IC50 [2]: 0.49 µg/mL (≈ 0.574 µM) | IC50 [3]: 0.44 µg/mL (≈ 0.515 µM) | IC50 [4]: 0.12 µg/mL (≈ 0.141 µM) | IC50 [5]: 0.22 µg/mL (≈ 0.258 µM)
Compound: CC(=O)O[C@H]1C(=O)[C@@]2(C)[C@H]([C@H](OC(=O)c3ccccc3)[C@]3(O)C[C@H](OC(=O)[C@H](O)[C@@H](NC(=O)c4ccccc4)c4ccccc4)C(C)=C1C3(C)C)[C@]1(OC(C)=O)CO[C@@H]1C[C@@H]2O [Taxol]
